These compounds were tested against glucan synthase (GS) prepared from Candida albicans MY1055 (Candida albicans, UniProt O13428) (assay: Glucan synthase inhibition (polymerization assay, 96-well)). Details: GS from C. albicans MY1055; 60 min incubation at 22° C.; read-out: Candida Albicans GS IC50 (converted).
Format: biochemical
Summary of the method: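 Partially purified glucan synthase from C. albicans MY1055 membranes incorporated 0.5 mM ³H-UDPG with 25 μM GTP-γ-S, HEPES pH 7.5, over 60 min at 22 °C. TCA-precipitated glucan was counted by scintillation. IC50 (ng/mL) came from sigmoidal fits of duplicate 3-fold dilution series.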

glucan synthase (GS) prepared from Candida albicans MY1055, sequence (O13428 1-1897): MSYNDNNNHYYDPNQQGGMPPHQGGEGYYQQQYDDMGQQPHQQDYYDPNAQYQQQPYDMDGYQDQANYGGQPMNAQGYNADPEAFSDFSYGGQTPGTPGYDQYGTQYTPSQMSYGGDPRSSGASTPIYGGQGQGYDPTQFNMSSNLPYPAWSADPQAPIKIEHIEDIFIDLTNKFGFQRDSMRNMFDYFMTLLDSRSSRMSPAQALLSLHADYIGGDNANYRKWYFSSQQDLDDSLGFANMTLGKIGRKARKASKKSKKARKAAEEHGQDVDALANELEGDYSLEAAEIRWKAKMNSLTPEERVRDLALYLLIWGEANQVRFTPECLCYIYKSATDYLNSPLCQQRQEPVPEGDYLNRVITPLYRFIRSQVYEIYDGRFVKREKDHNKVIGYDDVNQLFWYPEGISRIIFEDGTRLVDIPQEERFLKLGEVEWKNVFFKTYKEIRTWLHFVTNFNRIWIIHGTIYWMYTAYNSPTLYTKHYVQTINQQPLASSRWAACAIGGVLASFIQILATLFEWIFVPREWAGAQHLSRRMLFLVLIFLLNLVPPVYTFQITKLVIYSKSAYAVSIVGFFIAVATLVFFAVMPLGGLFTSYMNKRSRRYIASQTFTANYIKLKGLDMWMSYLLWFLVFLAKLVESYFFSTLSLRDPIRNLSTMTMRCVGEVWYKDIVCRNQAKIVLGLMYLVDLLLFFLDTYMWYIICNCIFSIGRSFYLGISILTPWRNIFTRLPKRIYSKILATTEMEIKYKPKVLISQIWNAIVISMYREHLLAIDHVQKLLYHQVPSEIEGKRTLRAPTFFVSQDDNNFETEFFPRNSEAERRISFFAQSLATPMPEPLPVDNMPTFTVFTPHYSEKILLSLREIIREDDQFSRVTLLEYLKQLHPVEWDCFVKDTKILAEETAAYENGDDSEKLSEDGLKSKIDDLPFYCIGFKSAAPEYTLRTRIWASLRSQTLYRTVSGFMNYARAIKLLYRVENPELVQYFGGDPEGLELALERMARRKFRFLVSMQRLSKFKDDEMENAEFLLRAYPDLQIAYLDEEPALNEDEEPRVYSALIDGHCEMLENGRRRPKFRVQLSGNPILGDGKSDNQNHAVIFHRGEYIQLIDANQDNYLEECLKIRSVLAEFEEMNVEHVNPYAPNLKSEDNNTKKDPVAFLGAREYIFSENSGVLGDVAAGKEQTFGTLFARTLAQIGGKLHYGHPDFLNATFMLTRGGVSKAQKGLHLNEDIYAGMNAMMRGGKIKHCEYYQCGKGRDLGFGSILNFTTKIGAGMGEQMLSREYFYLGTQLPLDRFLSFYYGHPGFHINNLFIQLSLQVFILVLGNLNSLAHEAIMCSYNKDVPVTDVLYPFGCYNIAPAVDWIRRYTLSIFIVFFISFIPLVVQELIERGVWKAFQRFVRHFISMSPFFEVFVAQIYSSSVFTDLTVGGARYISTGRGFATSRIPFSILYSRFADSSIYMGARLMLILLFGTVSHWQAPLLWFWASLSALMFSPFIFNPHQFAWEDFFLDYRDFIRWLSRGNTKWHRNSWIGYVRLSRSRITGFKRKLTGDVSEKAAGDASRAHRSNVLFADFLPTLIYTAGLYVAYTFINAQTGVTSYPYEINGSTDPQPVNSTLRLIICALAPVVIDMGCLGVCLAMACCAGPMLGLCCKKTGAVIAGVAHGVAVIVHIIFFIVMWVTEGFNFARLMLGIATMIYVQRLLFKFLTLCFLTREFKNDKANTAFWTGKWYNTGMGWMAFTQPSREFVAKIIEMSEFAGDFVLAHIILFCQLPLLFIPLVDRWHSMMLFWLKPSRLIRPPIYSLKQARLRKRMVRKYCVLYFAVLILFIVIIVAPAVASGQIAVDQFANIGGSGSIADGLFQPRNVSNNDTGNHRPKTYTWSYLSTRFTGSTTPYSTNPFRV

In order of falling IC50:
1. CC(C)[C@@H](C)[C@@]1(C)CC[C@]2(C)[C@H]3CC[C@@H]4[C@@]5(COC[C@@]4(C)[C@@H](OC[C@](C)(N)C(C)C)[C@H](n4nc(Br)nc4[N+](=O)[O-])C5)C3=CC[C@@]2(C)[C@@H]1C(=O)O (single isomer, unassigned) [Example 29B]  81.3 nM
2. CC(C)[C@@H](C)[C@@]1(C)CC[C@]2(C)[C@H]3CC[C@@H]4[C@@]5(COC[C@@]4(C)[C@@H](OC[C@](C)(N)C(C)(C)C)[C@H](n4cnnc4)C5)C3=CC[C@@]2(C)[C@@H]1C(=O)O [Example 1B, (1S,4aR,6aS,7R,8R,10aR,10bR,12aR,14R,15R)-15-[[(2R)-2-amino-2,3,3-trimethylbutyl]oxy]-8-[(1R)-1,2-dimethylpropyl]-14-(4H-1,2,4-triazol-4-yl)-1,6,6a,7,8,9,10,10a,10b,11,12,12a-dodecahydro-1,6a,8,10a-tetramethyl-4H-1,4a-propano-2H-phenanthro[1,2-c]pyran-7-carboxylic acid]  42.9 nM
3. CCCNS(=O)(=O)c1ncnn1[C@@H]1C[C@@]23COC[C@](C)([C@@H]2CC[C@H]2C3=CC[C@@]3(C)[C@H](C(=O)O)[C@@](C)([C@H](C)C(C)C)CC[C@]23C)[C@H]1OCC(N)(CC)CC [Example 126, (1S,4aR,6aS,7R,8R,10aR,10bR,12aR,14R,15R)-15-(2-amino-2-ethylbutoxy)-8-[(1R)-1,2-dimethylpropyl]-14-[5-[(propylamino)sulfonyl]-1H-1,2,4-triazol-1-yl]-1,6,6a,7,8,9,10,10a,10b,11,12,12a-dodecahydro-1,6a,8,10a-tetramethyl-4H-1,4a-propano-2H-phenanthro[1,2-c]pyran-7-carboxylic acid]  34.2 nM
4. CCCNC(=O)c1ncnn1[C@@H]1C[C@@]23COC[C@](C)([C@@H]2CC[C@H]2C3=CC[C@@]3(C)[C@H](C(=O)O)[C@@](C)([C@H](C)C(C)C)CC[C@]23C)[C@H]1OC[C@@](C)(N)C(C)C [Example 105, (1S,4aR,6aS,7R,8R,10aR,10bR,12aR,14R,15R)-15-[[(2S)-2-amino-2,3-dimethylbutyl]oxy]-8-[(1R)-1,2-dimethylpropyl]-14-[5-[(propylamino)carbonyl]-1H-1,2,4-triazol-1-yl]-1,6,6a,7,8,9,10,10a,10b,11,12,12a-dodecahydro-1,6a,8,10a-tetramethyl-4H-1,4a-propano-2H-phenanthro[1,2-c]pyran-7-carboxylic acid]  29 nM
5. CC(C)[C@@H](C)[C@@]1(C)CC[C@]2(C)[C@H]3CC[C@@H]4[C@@]5(COC[C@@]4(C)[C@@H](OC[C@](C)(C(C)C)N(C)C)[C@H](n4cnc(N)n4)C5)C3=CC[C@@]2(C)[C@@H]1C(=O)O [Example 27, (1S,4aR,6aS,7R,8R,10aR,10bR,12aR,14R,15R)-14-(3-amino-1H-1,2,4-triazol-1-yl)-15-[[(2S)-2-(dimethylamino)-2,3-dimethylbutyl]oxy]-8-[(1R)-1,2-dimethylpropyl]-1,6,6a,7,8,9,10,10a,10b,11,12,12a-dodecahydro-1,6a,8,10a-tetramethyl-4H-1,4a-propano-2H-phenanthro[1,2-c]pyran-7-carboxylic acid]  16.1 nM
6. CC(C)[C@@H](C)[C@@]1(C)CC[C@]2(C)[C@H]3CC[C@@H]4[C@@]5(COC[C@@]4(C)[C@@H](OC[C@H](N)C(C)(C)C)[C@H](n4ncnc4C(N)=O)C5)C3=CC[C@@]2(C)[C@@H]1C(=O)O [Example 97, (1S,4aR,6aS,7R,8R,10aR,10bR,12aR,14R,15R)-14-[5-(aminocarbonyl)-1H-1,2,4-triazol-1-yl]-15-[[(2R)-2-amino-3,3-dimethylbutyl]oxy]-8-[(1R)-1,2-dimethylpropyl]-1,6,6a,7,8,9,10,10a,10b,11,12,12a-dodecahydro-1,6a,8,10a-tetramethyl-4H-1,4a-propano-2H-phenanthro[1,2-c]pyran-7-carboxylic acid]  11.7 nM
7. CC(C)[C@@H](C)[C@@]1(C)CC[C@]2(C)[C@H]3CC[C@@H]4[C@@]5(COC[C@@]4(C)[C@@H](OC[C@](C)(N)c4ccccc4)[C@H](n4ncnc4-c4ccncc4)C5)C3=CC[C@@]2(C)[C@@H]1C(=O)O [Example 245, (1S,4aR,6aS,7R,8R,10aR,10bR,12aR,14R,15R)-15-[[(2R)-2-amino-2-phenylpropyl]oxy]-8-[(1R)-1,2-dimethylpropyl]-14-[5-(4-pyridinyl)-1H-1,2,4-triazol-1-yl]-1,6,6a,7,8,9,10,10a,10b,11,12,12a-dodecahydro-1,6a,8,10a-tetramethyl-4H-1,4a-propano-2H-phenanthro[1,2-c]pyran-7-carboxylic acid]  8 nM
8. CCCc1ncnn1[C@@H]1C[C@@]23COC[C@](C)([C@@H]2CC[C@H]2C3=CC[C@@]3(C)[C@H](C(=O)O)[C@@](C)([C@H](C)C(C)C)CC[C@]23C)[C@H]1OC[C@](C)(N)C(C)C [Example 169, (1S,4aR,6aS,7R,8R,10aR,10bR,12aR,14R,15R)-15-[[(2R)-2-amino-2,3-dimethylbutyl]oxy]-8-[(1R)-1,2-dimethylpropyl]-14-(5-propyl-1H-1,2,4-triazol-1-yl)-1,6,6a,7,8,9,10,10a,10b,11,12,12a-dodecahydro-1,6a,8,10a-tetramethyl-4H-1,4a-propano-2H-phenanthro[1,2-c]pyran-7-carboxylic acid]  4.41 nM
9. CC(C)[C@@H](C)[C@@]1(C)CC[C@]2(C)[C@H]3CC[C@@H]4[C@@]5(COC[C@@]4(C)[C@@H](OC[C@](C)(N)C(C)(C)C)[C@H](n4ncnc4-c4ccc(C(N)=O)nc4)C5)C3=CC[C@@]2(C)[C@@H]1C(=O)O [Example 221, (1S,4aR,6aS,7R,8R,10aR,10bR,12aR,14R,15R)-14-[5-[6-(aminocarbonyl)-3-pyridinyl]-1H-1,2,4-triazol-1-yl]-15-[[(2R)-2-amino-2,3,3-trimethylbutyl]oxy]-8-[(1R)-1,2-dimethylpropyl]-1,6,6a,7,8,9,10,10a,10b,11,12,12a-dodecahydro-1,6a,8,10a-tetramethyl-4H-1,4a-propano-2H-phenanthro[1,2-c]pyran-7-carboxylic acid]  3.88 nM
10. COC(=O)N1CCC(c2ncnn2[C@@H]2C[C@@]34COC[C@](C)([C@@H]3CC[C@H]3C4=CC[C@@]4(C)[C@H](C(=O)O)[C@@](C)([C@H](C)C(C)C)CC[C@]34C)[C@H]2OC[C@](C)(N)C(C)(C)C)CC1 [Example 276, (1S,4aR,6aS,7R,8R,10aR,10bR,12aR,14R,1SR)-15-[[(2R)-2-amino-2,3,3-trimethylbutyl]oxy]-8-[(1R)-1,2-dimethylpropyl]-14-[5-[1-(methoxycarbonyl)-4-piperidinyl]-1H-1,2,4-triazol-1-yl]-1,6,6a,7,8,9,10,10a,10b,11,12,12a-dodecahydro-1,6a,8,10a-tetramethyl-4H-1,4a-propano-2H-phenanthro[1,2-c]pyran-7-carboxylic acid]  2.52 nM
11. CC(C)[C@@H](C)[C@@]1(C)CC[C@]2(C)[C@H]3CC[C@@H]4[C@@]5(COC[C@@]4(C)[C@@H](OC[C@](C)(N)C(C)(C)C)[C@H](n4ncnc4-c4ccc(CN(C)C)cc4)C5)C3=CC[C@@]2(C)[C@@H]1C(=O)O [Example 239, (1S,4aR,6aS,7R,8R,10aR,10bR,12aR,14R,15R)-15-[[(2R)-2-amino-2,3,3-trimethylbutyl]oxy]-14-[5-[4-[(dimethylamino)methyl]phenyl]-1H-1,2,4-triazol-1-yl]-8-[(1R)-1,2-dimethylpropyl]-1,6,6a,7,8,9,10,10a,10b,11,12,12a-dodecahydro-1,6a,8,10a-tetramethyl-4H-1,4a-propano-2H-phenanthro[1,2-c]pyran-7-carboxylic acid]  0.127 nM
